Data published in the kinase profiling compilation of Christmann-Franck et al. (2016).

Tests used:
Assay in all cases: radiometric filter-binding kinase assay, Kinaseprofiler
TAOK1 (human) = TAOK1 (human) (UniProt Q7L7X3); conditions: compound 1.0 µM; ATP 10 µM
RPS6KA5 KD1 KD2 (human) = RPS6KA5 KD1 KD2 (human) (UniProt O75582); conditions: compound 1.0 µM; ATP 90 µM
TNK2 (human) = TNK2 (human) (UniProt Q07912); conditions: compound 1.0 µM; ATP 70 µM
CAMK2G (human) = CAMK2G (human) (UniProt Q13555); conditions: compound 10.0 µM; ATP 10 µM
CDC42BPA (human) = CDC42BPA (human) (UniProt Q5VT25); conditions: compound 10.0 µM; ATP 45 µM
RPS6KA3 KD1 KD2 (human) = RPS6KA3 KD1 KD2 (human) (UniProt P51812); conditions: compound 1.0 µM; ATP 10 µM
MARK2 (human) = MARK2 (human) (UniProt Q7KZI7); conditions: compound 1.0 µM; ATP 15 µM
[1] = molecular target: JAK2 JH1 catalytic (human) (UniProt O60674); conditions: compound 1.0 µM; ATP 45 µM
EPHA1 (human) = EPHA1 (human) (UniProt P21709); conditions: compound 1.0 µM; ATP 45 µM
EPHA3 (human) = EPHA3 (human) (UniProt P29320); conditions: compound 1.0 µM; ATP 120 µM
PIM1 (human) = PIM1 (human) (UniProt P11309); conditions: compound 10.0 µM; ATP 90 µM
KDR (human) = KDR (human) (UniProt P35968); conditions: compound 10.0 µM; ATP 90 µM
PAK4 (human) = PAK4 (human) (UniProt O96013); conditions: compound 10.0 µM; ATP 10 µM
NTRK1 (human) = NTRK1 (human) (UniProt P04629); conditions: compound 1.0 µM; ATP 120 µM
AURKB (human) = AURKB (human) (UniProt Q96GD4); conditions: compound 10.0 µM; ATP 10 µM
[2] = tested on: BRSK2 (human), Q8IWQ3 [S251I]; conditions: ATP 70 µM
[3] = tested on: AXL (human), P30530 [Q764R]; conditions: ATP 90 µM
[4] = tested on: IRAK4 (human), Q9NWZ3 [A81V]; conditions: ATP 200 µM
[5] = tested on: SGK1 (human), O00141 [S422D]; conditions: ATP 90 µM
[6] = tested on: RPS6KB1 (human), P23443 [T412E]; conditions: ATP 15 µM
WNK2 (human) = WNK2 (human) (UniProt Q9Y3S1); conditions: compound 10.0 µM; ATP 200 µM
STK17A (human) = STK17A (human) (UniProt Q9UEE5); conditions: compound 10.0 µM; ATP 10 µM
SRPK3 (human) = SRPK3 (human) (UniProt Q9UPE1); conditions: compound 10.0 µM; ATP 15 µM
IRAK1 (human) = IRAK1 (human) (UniProt P51617); conditions: compound 10.0 µM; ATP 45 µM
STK4 (human) = STK4 (human) (UniProt Q13043); conditions: compound 1.0 µM; ATP 90 µM
INSR (human) = INSR (human) (UniProt P06213); conditions: compound 1.0 µM; ATP 200 µM
RPS6KA4 KD1 KD2 (human) = RPS6KA4 KD1 KD2 (human) (UniProt O75676); conditions: ATP 45 µM
SRC (human) = SRC (human) (UniProt P12931); conditions: compound 10.0 µM; ATP 200 µM
HIPK3 (human) = HIPK3 (human) (UniProt Q9H422); conditions: ATP 15 µM
FGR (human) = FGR (human) (UniProt P09769); conditions: compound 1.0 µM; ATP 45 µM
PLK3 (human) = PLK3 (human) (UniProt Q9H4B4); conditions: compound 10.0 µM; ATP 70 µM
TXK (human) = TXK (human) (UniProt P42681); conditions: compound 1.0 µM; ATP 200 µM
FLT3 (human) = FLT3 (human) (UniProt P36888); conditions: ATP 200 µM
[7] = molecular target: CSNK2A1 CSNK2B CSNK2A2 (human) (UniProt P19784+P68400+P67870); conditions: compound 10.0 µM; ATP 15 µM
STK24 (human) = STK24 (human) (UniProt Q9Y6E0); conditions: compound 1.0 µM; ATP 15 µM
FER (human) = FER (human) (UniProt P16591); conditions: compound 10.0 µM; ATP 70 µM
EPHA8 (human) = EPHA8 (human) (UniProt P29322); conditions: compound 1.0 µM; ATP 200 µM
NUAK1 (human) = NUAK1 (human) (UniProt O60285); conditions: ATP 45 µM
ULK3 (human) = ULK3 (human) (UniProt Q6PHR2); conditions: compound 10.0 µM; ATP 10 µM
TLK2 (human) = TLK2 (human) (UniProt Q86UE8); conditions: ATP 10 µM
CSNK1G1 (human) = CSNK1G1 (human) (UniProt Q9HCP0); conditions: compound 10.0 µM; ATP 15 µM
PAK7 (human) = PAK7 (human) (UniProt Q9P286); conditions: compound 10.0 µM; ATP 15 µM
SRPK1 (human) = SRPK1 (human) (UniProt Q96SB4); conditions: compound 10.0 µM; ATP 10 µM
MAP2K1 (human) = MAP2K1 (human) (UniProt Q02750); conditions: compound 1.0 µM; ATP 10 µM
PRKG1 (human) = PRKG1 (human) (UniProt Q13976); conditions: compound 1.0 µM; ATP 90 µM
PRKACA (human) = PRKACA (human) (UniProt P17612); conditions: compound 1.0 µM; ATP 10 µM
MTOR FKBP1A (human) = MTOR FKBP1A (human) (UniProt P42345+P62942); conditions: compound 10.0 µM; ATP 45 µM
FYN (human) = FYN (human) (UniProt P06241); conditions: compound 1.0 µM; ATP 70 µM
CHEK1 (human) = CHEK1 (human) (UniProt O14757); conditions: compound 10.0 µM; ATP 90 µM
PTK2B (human) = PTK2B (human) (UniProt Q14289); conditions: compound 10.0 µM; ATP 90 µM
EPHB1 (human) = EPHB1 (human) (UniProt P54762); conditions: compound 10.0 µM; ATP 200 µM
MELK (human) = MELK (human) (UniProt Q14680); conditions: compound 1.0 µM; ATP 45 µM
MAPK3 (human) = MAPK3 (human) (UniProt P27361); conditions: compound 1.0 µM; ATP 70 µM
CSNK1D (rat) = conditions: compound 10.0 µM; accession and sequence are those of the human protein
NTRK2 (human) = NTRK2 (human) (UniProt Q16620); conditions: ATP 90 µM
NLK (human) = NLK (human) (UniProt Q9UBE8); conditions: compound 1.0 µM; ATP 200 µM
PASK (human) = PASK (human) (UniProt Q96RG2); conditions: compound 10.0 µM; ATP 15 µM
MAPKAPK3 (human) = MAPKAPK3 (human) (UniProt Q16644); conditions: compound 10.0 µM; ATP 90 µM

AXL (human), P30530 [Q764R], sequence (P30530 whole entry Q764R, looked up): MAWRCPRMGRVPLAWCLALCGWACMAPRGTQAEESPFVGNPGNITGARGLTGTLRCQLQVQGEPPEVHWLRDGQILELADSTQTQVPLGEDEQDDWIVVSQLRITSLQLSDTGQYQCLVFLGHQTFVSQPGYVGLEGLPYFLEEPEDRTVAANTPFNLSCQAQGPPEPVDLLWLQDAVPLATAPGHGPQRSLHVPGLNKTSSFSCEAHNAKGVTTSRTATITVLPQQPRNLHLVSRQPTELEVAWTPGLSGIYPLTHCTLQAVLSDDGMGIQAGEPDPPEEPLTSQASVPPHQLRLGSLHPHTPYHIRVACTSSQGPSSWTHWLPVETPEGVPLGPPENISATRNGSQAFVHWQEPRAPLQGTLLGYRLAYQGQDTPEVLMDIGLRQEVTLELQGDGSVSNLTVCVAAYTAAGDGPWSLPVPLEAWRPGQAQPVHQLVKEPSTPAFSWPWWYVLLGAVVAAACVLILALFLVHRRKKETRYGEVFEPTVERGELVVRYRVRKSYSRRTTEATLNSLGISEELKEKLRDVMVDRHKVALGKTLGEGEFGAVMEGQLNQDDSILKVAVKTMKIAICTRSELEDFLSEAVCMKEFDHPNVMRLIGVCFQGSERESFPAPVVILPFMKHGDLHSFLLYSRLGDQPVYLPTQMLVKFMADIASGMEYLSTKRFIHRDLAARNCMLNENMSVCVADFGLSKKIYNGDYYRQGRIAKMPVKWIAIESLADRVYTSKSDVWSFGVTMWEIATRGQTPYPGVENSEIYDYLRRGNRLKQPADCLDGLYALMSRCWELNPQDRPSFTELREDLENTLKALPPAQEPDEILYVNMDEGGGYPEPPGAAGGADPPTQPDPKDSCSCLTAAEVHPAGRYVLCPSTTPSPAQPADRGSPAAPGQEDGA
IRAK4 (human), Q9NWZ3 [A81V], sequence (Q9NWZ3 whole entry, looked up, stated change not applied): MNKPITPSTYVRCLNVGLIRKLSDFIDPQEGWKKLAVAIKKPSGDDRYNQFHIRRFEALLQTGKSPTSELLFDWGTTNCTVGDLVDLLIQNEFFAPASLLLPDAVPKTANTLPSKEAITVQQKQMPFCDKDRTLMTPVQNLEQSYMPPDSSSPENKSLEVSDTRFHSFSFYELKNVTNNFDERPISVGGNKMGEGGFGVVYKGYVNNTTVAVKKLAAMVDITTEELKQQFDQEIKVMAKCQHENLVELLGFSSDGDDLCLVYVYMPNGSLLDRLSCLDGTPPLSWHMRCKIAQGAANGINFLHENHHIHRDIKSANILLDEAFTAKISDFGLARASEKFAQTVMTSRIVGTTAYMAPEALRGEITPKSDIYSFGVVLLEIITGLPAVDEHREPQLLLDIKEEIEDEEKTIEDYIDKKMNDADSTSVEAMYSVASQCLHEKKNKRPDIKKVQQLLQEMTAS
BRSK2 (human), Q8IWQ3 [S251I], sequence (Q8IWQ3 whole entry, looked up, stated change not applied): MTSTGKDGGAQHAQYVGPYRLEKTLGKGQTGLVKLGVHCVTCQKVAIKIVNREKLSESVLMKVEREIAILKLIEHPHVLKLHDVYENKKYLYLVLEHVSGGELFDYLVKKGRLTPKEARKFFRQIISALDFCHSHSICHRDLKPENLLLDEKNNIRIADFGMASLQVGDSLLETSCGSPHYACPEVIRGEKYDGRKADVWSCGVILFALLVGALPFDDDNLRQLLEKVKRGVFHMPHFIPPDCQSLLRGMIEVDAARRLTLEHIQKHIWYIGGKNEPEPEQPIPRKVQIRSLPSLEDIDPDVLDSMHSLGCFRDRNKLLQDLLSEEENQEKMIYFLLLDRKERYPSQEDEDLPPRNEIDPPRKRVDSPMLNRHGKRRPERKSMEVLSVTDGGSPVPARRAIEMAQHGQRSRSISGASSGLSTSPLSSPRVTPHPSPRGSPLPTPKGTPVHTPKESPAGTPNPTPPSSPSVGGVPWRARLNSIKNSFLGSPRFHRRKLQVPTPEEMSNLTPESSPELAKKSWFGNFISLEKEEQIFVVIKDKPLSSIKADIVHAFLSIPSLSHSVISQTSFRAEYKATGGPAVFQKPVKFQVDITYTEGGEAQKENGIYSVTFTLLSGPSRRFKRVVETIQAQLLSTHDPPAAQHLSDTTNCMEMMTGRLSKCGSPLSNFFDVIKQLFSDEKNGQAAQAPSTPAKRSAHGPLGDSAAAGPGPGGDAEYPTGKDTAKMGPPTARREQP
NTRK2 (human), sequence (Q16620 whole entry, looked up): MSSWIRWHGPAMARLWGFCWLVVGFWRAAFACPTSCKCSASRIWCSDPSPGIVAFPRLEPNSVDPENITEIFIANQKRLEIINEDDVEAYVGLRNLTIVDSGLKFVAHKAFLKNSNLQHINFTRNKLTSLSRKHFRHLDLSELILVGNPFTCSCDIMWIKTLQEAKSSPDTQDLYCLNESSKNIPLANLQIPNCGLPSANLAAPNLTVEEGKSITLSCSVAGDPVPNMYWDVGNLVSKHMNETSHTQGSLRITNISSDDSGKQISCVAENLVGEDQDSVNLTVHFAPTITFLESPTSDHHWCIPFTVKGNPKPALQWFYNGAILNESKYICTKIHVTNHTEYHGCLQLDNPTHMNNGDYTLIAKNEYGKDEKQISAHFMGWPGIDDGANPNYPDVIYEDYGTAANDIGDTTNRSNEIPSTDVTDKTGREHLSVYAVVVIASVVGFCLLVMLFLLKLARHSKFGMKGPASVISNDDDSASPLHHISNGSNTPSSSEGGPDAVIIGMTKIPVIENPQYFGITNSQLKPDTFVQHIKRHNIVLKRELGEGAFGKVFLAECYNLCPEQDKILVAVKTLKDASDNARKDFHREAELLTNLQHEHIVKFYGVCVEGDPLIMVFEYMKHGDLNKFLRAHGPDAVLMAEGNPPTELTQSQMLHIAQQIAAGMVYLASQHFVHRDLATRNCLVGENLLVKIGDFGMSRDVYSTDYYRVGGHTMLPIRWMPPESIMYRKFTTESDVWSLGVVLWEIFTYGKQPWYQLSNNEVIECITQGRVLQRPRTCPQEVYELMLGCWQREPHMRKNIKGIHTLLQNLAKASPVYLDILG
RPS6KB1 (human), P23443 [T412E], sequence (P23443 whole entry T412E, looked up): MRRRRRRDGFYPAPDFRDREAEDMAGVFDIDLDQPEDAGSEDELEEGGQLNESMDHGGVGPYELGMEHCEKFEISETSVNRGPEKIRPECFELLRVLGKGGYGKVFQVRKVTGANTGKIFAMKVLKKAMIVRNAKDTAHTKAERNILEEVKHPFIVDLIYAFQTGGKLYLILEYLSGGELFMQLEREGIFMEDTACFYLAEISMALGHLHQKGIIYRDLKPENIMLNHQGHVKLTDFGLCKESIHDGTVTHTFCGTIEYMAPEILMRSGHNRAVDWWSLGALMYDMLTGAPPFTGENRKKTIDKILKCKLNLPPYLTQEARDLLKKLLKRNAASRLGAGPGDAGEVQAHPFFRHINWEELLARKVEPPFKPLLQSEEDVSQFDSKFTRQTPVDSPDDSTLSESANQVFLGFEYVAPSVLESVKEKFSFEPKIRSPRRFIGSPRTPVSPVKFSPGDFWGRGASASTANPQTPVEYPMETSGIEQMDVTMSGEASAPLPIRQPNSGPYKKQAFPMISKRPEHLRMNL
FLT3 (human), sequence (P36888 whole entry, looked up): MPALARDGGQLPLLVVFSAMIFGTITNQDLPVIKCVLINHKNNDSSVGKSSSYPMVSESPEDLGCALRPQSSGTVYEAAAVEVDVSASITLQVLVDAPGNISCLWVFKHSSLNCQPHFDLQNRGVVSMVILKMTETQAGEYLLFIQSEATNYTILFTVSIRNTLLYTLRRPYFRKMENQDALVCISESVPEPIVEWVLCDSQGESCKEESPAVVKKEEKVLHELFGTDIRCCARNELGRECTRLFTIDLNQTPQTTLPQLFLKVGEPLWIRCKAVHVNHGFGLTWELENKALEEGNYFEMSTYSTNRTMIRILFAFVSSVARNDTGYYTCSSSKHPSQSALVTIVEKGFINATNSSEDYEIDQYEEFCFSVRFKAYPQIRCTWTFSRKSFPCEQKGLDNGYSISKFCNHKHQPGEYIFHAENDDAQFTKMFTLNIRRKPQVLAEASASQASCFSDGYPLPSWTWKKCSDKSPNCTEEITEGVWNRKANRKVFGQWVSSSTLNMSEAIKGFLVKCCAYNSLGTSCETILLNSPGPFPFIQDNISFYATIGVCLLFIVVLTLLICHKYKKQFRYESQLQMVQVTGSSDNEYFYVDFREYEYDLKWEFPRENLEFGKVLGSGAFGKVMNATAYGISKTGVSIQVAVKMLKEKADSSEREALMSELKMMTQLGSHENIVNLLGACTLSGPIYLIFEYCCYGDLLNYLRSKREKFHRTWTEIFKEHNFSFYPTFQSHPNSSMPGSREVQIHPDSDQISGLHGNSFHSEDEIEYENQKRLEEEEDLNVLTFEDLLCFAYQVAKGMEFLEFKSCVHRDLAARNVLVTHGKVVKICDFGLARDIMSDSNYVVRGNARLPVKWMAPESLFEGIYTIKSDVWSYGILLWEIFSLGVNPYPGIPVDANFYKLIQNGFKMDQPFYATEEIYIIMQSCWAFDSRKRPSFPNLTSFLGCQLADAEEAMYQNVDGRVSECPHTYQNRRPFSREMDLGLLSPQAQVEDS
SGK1 (human), O00141 [S422D], sequence (O00141 whole entry S422D, looked up): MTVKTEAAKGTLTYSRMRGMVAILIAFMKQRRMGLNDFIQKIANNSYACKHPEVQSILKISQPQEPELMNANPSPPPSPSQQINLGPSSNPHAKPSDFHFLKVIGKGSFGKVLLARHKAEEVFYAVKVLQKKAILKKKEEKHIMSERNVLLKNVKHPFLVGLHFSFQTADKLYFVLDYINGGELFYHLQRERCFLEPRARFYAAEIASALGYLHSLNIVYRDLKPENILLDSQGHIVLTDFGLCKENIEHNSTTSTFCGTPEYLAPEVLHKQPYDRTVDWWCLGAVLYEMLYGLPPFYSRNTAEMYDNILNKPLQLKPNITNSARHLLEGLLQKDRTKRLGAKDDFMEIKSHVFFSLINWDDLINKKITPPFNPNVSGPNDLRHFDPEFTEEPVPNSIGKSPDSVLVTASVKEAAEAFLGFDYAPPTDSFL
MTOR FKBP1A (human), sequence (P62942 whole entry, looked up, other chains not shown): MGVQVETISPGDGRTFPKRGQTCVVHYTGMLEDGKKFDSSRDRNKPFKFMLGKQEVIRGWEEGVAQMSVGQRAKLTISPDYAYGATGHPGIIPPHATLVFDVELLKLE

For O=C(Nc1cccc(Nc2nccc(Nc3cccc(C(F)(F)F)c3)n2)c1)C1CC1, the residual activity (TAOK1 (human)) was 100%, the residual activity (RPS6KA5 KD1 KD2 (human)) was 100% and the residual activity (TNK2 (human)) was 24%. It also gave a residual activity (CAMK2G (human)) of 21%, a residual activity (CDC42BPA (human)) of 147% and a residual activity (RPS6KA3 KD1 KD2 (human)) of 17%. The residual activity (MARK2 (human)) was 100%, the residual activity [1] was 17% and the residual activity (EPHA1 (human)) was 24%. The residual activity (EPHA3 (human)) was 100%, the residual activity (PIM1 (human)) was 28% and the residual activity (KDR (human)) was 24%. For the same molecule, the residual activity (PAK4 (human)) was 28%, the residual activity (NTRK1 (human)) was 21% and the residual activity (AURKB (human)) was -1%.

COC(=O)[C@]1(O)C[C@@H]2O[C@@]1(C)n1c3ccccc3c3c4c(c5c6ccccc6n2c5c31)C(=O)NC4 showed a residual activity ([2]; compound 10.0 µM) of 0%, a residual activity ([3]; compound 10.0 µM) of -3% and a residual activity ([4]; compound 1.0 µM) of -2%. The residual activity ([4]; compound 10.0 µM) was 0%.

With O=C1c2ccccc2-c2n[nH]c3cccc1c23 the residual activity ([2]; compound 1.0 µM) was 64%, the residual activity ([2]; compound 10.0 µM) was 9% and the residual activity ([3]; compound 1.0 µM) was 50%. It also gave a residual activity ([3]; compound 10.0 µM) of 17%, a residual activity ([4]; compound 1.0 µM) of 36% and a residual activity ([4]; compound 10.0 µM) of 11%. For the same molecule, the residual activity ([5]; compound 1.0 µM) was 60%, the residual activity ([5]; compound 10.0 µM) was 24% and the residual activity ([6]; compound 1.0 µM) was 55%. The residual activity ([6]; compound 10.0 µM) was 14%.

CN[C@@H]1C[C@H]2O[C@@](C)([C@@H]1OC)n1c3ccccc3c3c4c(c5c6ccccc6n2c5c31)C(=O)NC4 gave a residual activity ([2]; compound 10.0 µM) of 0%, a residual activity (WNK2 (human)) of 37% and a residual activity (STK17A (human)) of 0%. The residual activity (SRPK3 (human)) was 51%, the residual activity (IRAK1 (human)) was 0% and the residual activity (STK4 (human)) was 0%. The residual activity (INSR (human)) was 26%, the residual activity (RPS6KA4 KD1 KD2 (human); compound 1.0 µM) was 0% and the residual activity (RPS6KA4 KD1 KD2 (human); compound 10.0 µM) was 0%. It also gave a residual activity (SRC (human)) of 0%, a residual activity (HIPK3 (human); compound 1.0 µM) of 82% and a residual activity (HIPK3 (human); compound 10.0 µM) of 34%. The residual activity (FGR (human)) was 0%, the residual activity (PLK3 (human)) was 43% and the residual activity (TXK (human)) was 24%. It also gave a residual activity (FLT3 (human); compound 1.0 µM) of 0%, a residual activity (FLT3 (human); compound 10.0 µM) of 0% and a residual activity [7] of 95%. It also gave a residual activity (STK24 (human)) of 0%, a residual activity ([4]; compound 10.0 µM) of 0% and a residual activity (FER (human)) of 0%. It also gave a residual activity (EPHA8 (human)) of 26%, a residual activity (NUAK1 (human); compound 1.0 µM) of 0% and a residual activity (NUAK1 (human); compound 10.0 µM) of 0%. It also gave a residual activity (ULK3 (human)) of 0%, a residual activity (TLK2 (human); compound 1.0 µM) of 0% and a residual activity (TLK2 (human); compound 10.0 µM) of 0%. For the same molecule, the residual activity (CSNK1G1 (human)) was 54%, the residual activity (PAK7 (human)) was 0% and the residual activity (SRPK1 (human)) was -4%. For the same molecule, the residual activity (MAP2K1 (human)) was 0%, the residual activity (PRKG1 (human)) was 0% and the residual activity (PRKACA (human)) was 0%. For the same molecule, the residual activity (MTOR FKBP1A (human)) was 78%, the residual activity (FYN (human)) was 0% and the residual activity (CHEK1 (human)) was 0%. The residual activity (PTK2B (human)) was 0%, the residual activity (EPHB1 (human)) was 0% and the residual activity (MELK (human)) was 0%. The residual activity (MAPK3 (human)) was 62%, the residual activity (CSNK1D (rat)) was 52% and the residual activity (NTRK2 (human); compound 1.0 µM) was 0%. For the same molecule, the residual activity (NTRK2 (human); compound 10.0 µM) was 0%, the residual activity (NLK (human)) was 26% and the residual activity (PASK (human)) was 0%. It also gave a residual activity (MAPKAPK3 (human)) of 43%.
